We go through six compounds from patent US5268389A, “Thiocarboxylate ester compounds compositions containing the same” (priority 1990, dated 1993).

Each structure is given as a SMILES string.

Broadly, the IC50 is the midpoint of a concentration-inhibition curve. Broadly, the EC50 is the concentration at which the effect is half-maximal.

Data set [1] is described as follows: Toxicity of test compound to uninfected CEM cell line (growth inhibition). It counts as cell-based, human. The note with it: human, cem cells, read-out: UNINFECTED CULTURE Response (%). The method, then: (§1) In the second blank, the cell line culture and the compound being tested (but not virus) were incubated together to measure the toxicity of the drug to the cellline. The viability of the cells was measured as a function of concentration of the compound, after holding for seven days. Typically, the cells survive at low compound concentrations, but at some higher concentration, toxicity of the compound is manifested and the cells die. The concentration of the test compound that results in 50% inhibition of cell growth is defined as the IC50.
(§2) 1) T4 lymphocytes (CEM cell line) are exposed to HIV at a virus to cell ratio of approximately 0.05 and plated along with non-infected control cells in 96-well microtiter plates.
(§3) 2) Each candidate agent is dissolved in dimethyl sulfoxide (unless otherwise indicated), then diluted 1:200 in cell culture medium. Further dilutions (five-fold) are prepared before adding to an equal volume of medium containing either infected or noninfected cells.
(§4) 3) Cultures are incubated at 37° C. in a 5% carbon dioxide atmosphere for seven days (if six days the CEMV test is identified as CEM-6).
(§5) 4) The tetrazolium salt, XTT, is added to all wells, and cultures are incubated to allow formazan color development by viable cells.
(§6) 5) Individual wells are analyzed spectrophotometrically to quantity formazan production, and in addition are viewed microscopically for detection of viable cells and confirmation of protective activity.
(§7) 6) Drug-treated virus-infected cells are compared with drug-treated non-infected cells and with other appropriate controls (untreated infected and untreated non-infected cells, drug-containing wells without cells, etc.) on the same plate.
(§8) The compound of Example 3, viz., methyl 2-chloro-5-[[(5,6-dihydro-2-methyl-1,4-oxathiin-3-yl)carbonyl]amino]benzoate, was tested against the H9/HTLV-IIIB (HIV-I) virus employing the CEM line of host cells and using free virus innoculation (denoted CEM-V). […] All concentrations are expressed in moles per liter.
(§9) The dashed line connecting the square symbols depicts the percentage of surviving uninfected cells treated with the sample relative to the same uninfected, untreated controls. This line expresses the in-vitro growth inhibitory properties of the sample and represents the second blank test.

Data set [2] concerns CEM cells. The data set is described as above. Type of data set: cell-based, human. The note with it: Homo sapiens, CCRF-CEM; CEM cells, uninfected, Table III; read-out: IC50 (50% inhibition of cell growth). The method, then: as §1, §2, §3, §4, §5, §6, §7, §8, §9
The subject of data set [3] is HIV. Briefly: HIV antiviral activity with addition delayed after infection. It counts as cell-based.
For data set [4], the system named is HIV. Briefly: microbe, parasite or virus in culture. It counts as cell-based. Summed up: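 CEM (or MT2) cells infected with HIV at virus:cell ratio ~0.05 (free virus or infected cells), with […] compound dilutions from DMSO, 7 days (6 for CEM-6) at 37° C, 5% CO2. Viability by XTT formazan; EC50 = 50% reduction of viral cytopathic effect, IC50 = 50% growth inhibition of uninfected cells; CEMZ includes sub-effective AZT.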

Data set [5] relates to HIV. Description: Reduction of HIV cytopathic effect, MT2V (MT2 cells, free virus). The note with it: Human immunodeficiency virus 1, read-out: Activity of Anti-HIV Compounds (EC50), MT2V. It counts as cell-based. The method, then:
(§10) The compounds of Examples were tested for anti-AIDS activity by subjecting them to standard National Cancer Institute ("NCI") in vitro screening procedures. In carrying out each test, two blanks were run. In the first blank, HIV and a culture of a standard human cell line were incubated together to measure the infectivity of the virus. The viability of the cells was measured after holding for six or seven days. In an "effective" test, most cells were infected before the holding period was complete.
(§11) In the second blank, the cell line culture and the compound being tested (but not virus) were incubated together to measure the toxicity of the drug to the cellline. The viability of the cells was measured as a function of concentration of the compound, after holding for seven days. […]
(§12) Finally, the protective effects of the test compounds were measured. Each cell culture and test compound were incubated with the virus and the viability of the cells was measured as a function of compound concentration after holding for six or seven days. […] At this point, cell viability increases steadily toward 100% unless the toxic effect of the compound (as measured in the second blank) takes effect. […] The therapeutic index TI50 is calculated as IC50/EC50.
(§13) Values of test compound concentrations required for between 20 and 50% reduction of the viral cytopathic effect can also be determined. […]
In general terms: Protection from cytopathic effect is a common read-out in antiviral testing.

Details of data set [6]: species or system mice. The note with it: mouse, in vivo, iv, 10 mg/kg/day. An excerpt:
Initial studies on the toxicity of the compound of Example 1 were made on mice.
for 5 days Per Day Test Toxicity

Data set [7] concerns HIV. Description: Reduction of HIV cytopathic effect, MT2C (MT2 cells inoculated with cultured virus-infected MT2 cells). Type of data set: cell-based. As to the method:
as §10, §11, §12, §13

In data set [8] the test system is HIV. Description: Reduction of HIV cytopathic effect, CEMC (CEM cells, virus previously cultured with host cells). The note with it: Human immunodeficiency virus 1, CCRF-CEM, read-out: Activity of Anti-HIV Compounds (EC50), CEMC. It counts as cell-based. As to the method: as §10, §1
Finally, the protective effects of the test compounds were measured. Each cell culture and test compound were incubated with the virus and the viability of the cells was measured as a function of compound concentration after holding for six or seven days. If the compound is active in protecting the cells against the virus, there is typically low cell viability until an effective concentration of the test compound is reached. At this point, cell viability increases steadily toward 100% unless the toxic effect of the compound (as measured in the second blank) takes effect. […] The therapeutic index TI50 is calculated as IC50/EC50.
as §13
5) Individual wells are analyzed spectrophotometrically to quantity formazan production, and in addition are viewed microscopically for detection of viable cells and confirmation of protective activity. […]

The test system of data set [9] is HIV. Briefly: Reduction of HIV cytopathic effect, CEMZ (CEM line with sub-effective amount of AZT). The note with it: Human immunodeficiency virus 1, CCRF-CEM, CEM cells, read-out: Activity of Anti-HIV Compounds (EC50), CEMZ. It counts as cell-based. The method, then:
as §10, §1
Finally, the protective effects of the test compounds were measured. Each cell culture and test compound were incubated with the virus and the viability of the cells was measured as a function of compound concentration after holding for six or seven days. If the compound is active in protecting the cells against the virus, there is typically low cell viability until an effective concentration of the test compound is reached. At this point, cell viability increases steadily toward 100% unless the toxic effect of the compound (as measured in the second blank) takes effect. The concentration of the test compound that results in 50% "control," i.e., a 50% reduction of the viral cytopathic effect, is defined as the EC 50. The therapeutic index TI50 is calculated as IC50/EC50.
Values of test compound concentrations required for between 20 and 50% reduction of the viral cytopathic effect can also be determined. Such compounds are classified as moderately active.
The compounds were tested to determine their reduction of HIV cytopathic effect on the human cell lines CEM and MT2. Tests were done by innoculating these cell lines either with free HIV (V) or with a virus Previously cultured with host cells (C). Thus, in Table III the designation CEMV means CEM line cells innoculated with free virus and MT2C means MT2 cells innoculated with cultured viral infected MT2 cells. In some cases the compound was also tested on a cell line together with a sub-effective amount of the known HIV viricide AZT. This is done to test possible synergistic effects. Such a test on the CEM line is denoted CEMZ.

The subject of data set [10] is various fungi. To be noted: variety of crops; cited from earlier work.
Data set [11] has as its system host DNA synthesis. The note with it: administration of AZT; cited from earlier work.

Consider `COC(=O)c1cc(NC(=O)C2=C(C)OCCS2)ccc1Cl` [Compound 3, Methyl 2-chloro-5-[[(5,6-dihydro-2-methyl-1,4-oxathiin-3-yl)carbonyl]amino]benzoate], for which, in data set [1] (1.72 × 10^-4 Molar), the viability at 168 h, 172 µM worked out at 10.1%. The viability at 168 h, 17.2 µM in data set [1] (1.72 × 10^-5 Molar) came out at 95.7%. In addition, in [1] (1.72 × 10^-6 Molar), the viability at 168 h, 1.72 µM is 84.6%. Besides, the viability at 168 h, 0.172 µM in data set [1] (1.72 × 10^-7 Molar) amounted to 86.8%. Also, the viability at 168 h, 54.4 µM in data set [1] (5.44 × 10^-5 Molar) was determined as 97%. Also, the viability at 168 h, 5.45 µM in [1] (5.45 × 10^-6 Molar) is 108%. Further, in data set [1] (5.46 × 10^-7 Molar), the viability at 168 h, 0.546 µM came to 84%. In [1] (5.47 × 10^-8 Molar), the viability at 168 h, 0.0547 µM stood at 86.8%. Besides, the IC50 in [2] was determined as 101 µM. In data set [3] (delays of up to twenty hours), the “protection with delayed addition” value was “delays of up to twenty hours will still offer some protection”. Further, in [3] (up to eight hours after infection), the “full HIV antiviral activity after infection” value is “full HIV antiviral activity for up to eight hours after infection”. Also, in data set [4] (CEM-V, Figure I, point 6), the “concentration of maximum effect” value is listed as “about 1.7×10^-5 molar”. In addition, the CONCLUSION entry in data set [4] (CEM-V, Table III) was “ACTIVE”. The viability at 172 µM in data set [4] (Human immunodeficiency virus 1, CCRF-CEM, 1.72 × 10^-4 Molar, read-out: INFECTED CULTURE Response (%)) was 10.7%. The viability at 17.2 µM in [4] (Human immunodeficiency virus 1, CCRF-CEM, 1.72 × 10^-5 Molar, read-out: INFECTED CULTURE Response (%)) was 89.2%. The viability at 0.172 µM in [4] (Human immunodeficiency virus 1, CCRF-CEM, 1.72 × 10^-7 Molar, read-out: INFECTED CULTURE Response (%)) worked out at 23.3%. In data set [4] (Human immunodeficiency virus 1, CCRF-CEM, 5.44 × 10^-5 Molar, read-out: INFECTED CULTURE Response (%)), the viability at 54.4 µM stood at 86.1%. Also, the viability at 5.45 µM in [4] (Human immunodeficiency virus 1, CCRF-CEM, 5.45 × 10^-6 Molar, read-out: INFECTED CULTURE Response (%)) turned out to be 78.8%. In data set [4] (Human immunodeficiency virus 1, CCRF-CEM, 5.46 × 10^-7 Molar, read-out: INFECTED CULTURE Response (%)), the viability at 0.546 µM stood at 15.7%. The viability at 0.0547 µM in [4] (Human immunodeficiency virus 1, CCRF-CEM, 5.47 × 10^-8 Molar, read-out: INFECTED CULTURE Response (%)) stood at 15.3%. Moreover, the EC50 in data set [4] (Human immunodeficiency virus 1, IIIB, CEM-V, H9/HTLV-IIIB (HIV-I), Table III, read-out: EC50 (50% reduction in the viral cytopathic effect)) was 1.91 µM. Further, the minimal effective concentration in data set [4] (Human immunodeficiency virus 1, CEM-V, Figure I, point 5, read-out: concentration at which the compound began to show inhibition of the viral cytopathic effect) was around 0.55 µM.

As for `CC1=C(C(=O)Nc2ccc(Cl)c(C(=O)OC(C)C)c2)SCCO1` [Compound 1, 1-Methylethyl 2-chloro-5-[[(5,6-dihydro-2-methyl-1,4-oxathiin-3-yl)carbonyl]amino]benzoate], the EC50 in data set [5] was 2.6 µM. For the same compound, in data set [6], the “Result, Toxicity” value was “No visible sign”.

With `CC1=C(C(=O)Nc2ccc(Cl)cc2)SCCS1` [Compound 26, N-(4-Chlorophenyl)-5,6-dihydro-3-methyl-1,4-dithiin-2-carboxamide], the “Activity class of Anti-HIV Compounds, MT2C” value in data set [7] (inhibition of viral cytopathic effect, MT2 cells, cultured virus) is “MA (moderate activity (MA), that is, inhibition between approximately 20 and 50%)”. In [8], the EC50 is 35.5 µM.

In the case of `CC1=C(C(=O)Nc2cc(C(=O)OC(C)C)c(Cl)cc2F)SCCO1` [Compound 2, 1-Methylethyl 2-chloro-5-[[(5,6-dihydro-2-methyl-1,4-oxathiin-3-yl)carbonyl]amino]-4-fluorobenzoate], the EC50 in data set [7] (Human immunodeficiency virus 1, MT2, MT2 cells inoculated with cultured viral infected MT2 cells, read-out: Activity of Anti-HIV Compounds (EC50), MT2C) came out at 3.2 µM; in data set [8], 3.5 µM; in [9], 1.8 µM; in [5], 14.4 µM; in [4] (CEM cells, free HIV, read-out: Activity of Anti-HIV Compounds (EC50), CEMV) it was 1.3 µM.

`CC1=C(C(=O)Nc2ccccc2)SCCO1` [carboxin, 5,6-dihydro-2-methyl-N-phenyl-1,4-oxathiin-3-carboxamide]: the “control of fungi by seed treatment” value in [10] is “providing control by seed treatment of various fungi”.

On to `Cc1cn([C@H]2C[C@H](N=[N+]=[N-])[C@@H](CO)O2)c(=O)[nH]c1=O` [AZT, Azidothymidine], for which the side effects entry in data set [11] was “severe side effects, e.g., anemia, granulocytopenia, and thrombocytopenia”.
